Series [1] relates to H596 (mitomycin-resistant, lacks DT-Diaphorase) non small cell lung cancer (NSCLC) cell line. Nature of the series: Cytotoxic activity, H596 cell line. The following applies: Homo sapiens, NCI-H596, read-out: IC50 (nM) H596. It counts as cell-based. As for the experimental part: (§1) The O-amino phenol derivatives bearing the N—O prodrug linkages and the various N-acyl substituents were assayed for cytotoxic activity alongside the parent drugs CBI-TMI (2) (Boger, D. L.; Yun, W. J. Am. Chem. Soc. 1994, 116, 7996) and mitomycin C (Boger, D. L.; et al. Bioorg. Med. Chem. Lett. 1991, 1, 115; Boger, D. L.; et al. Bioorg. Med. Chem. 1995, 3, 1429) as well as the two control standards 9 and 10 incapable of free phenol release. Three cell lines were examined including a standard L1210 cell line (mouse leukemia) as well as the mitomycin-sensitive (H460, expresses high levels of DT-Diaphorase) and resistant (H596, lacks DT-Diaphorase) non small cell lung cancer (NSCLC) cell lines, with results shown in the Table below.

Series [2] is described as follows: Stability in pH 7.0 phosphate buffer. It counts as physicochemical. The settings on record: HPLC, UV; monitored 72 hours.
Series [3] in a line: Chemical stability and reactivity of the N-acyl O-amino phenol derivatives. It counts as physicochemical. The settings on record: for stability to acidic conditions: TFA-CH2Cl2, 4 N HCl-EtOAc.
For series [4], the system named is L1210 cell line (mouse leukemia). Put plainly: Cytotoxic activity, L1210 cell line. The format is cell-based. The method, then: as §1
A further series concerns w794 duplex DNA. Nature of the series: DNA alkylation selectivity and efficiency (thermally-induced strand cleavage). It counts as biochemical. As for the experimental part: FIG. 1 illustrates the results of an electrophoresis gel with 8% denaturing PAGE and autoradiography. Thermally-induced strand cleavage of w794 DNA; DNA-agent incubation at 4° C. for 18 hours, removal of unbound agent by EtOH precipitation, and 30 minutes of thermolysis (100° C.) followed by 8% denaturing PAGE and autoradiography. Lane 1, control DNA; lanes 2-5, Sanger G, C, A, and T sequencing reactions; lanes 6-8, 2 (1×10^−4 to 1×10^−6); lanes 9-11, 10 (1×10^−1 to 1×10^−3); lanes 12-14, 4 (1×10^−1 to 1×10^−3), lanes 15-17, 9 (1×10^−1 to 1×10^−3).
The DNA alkylation properties of 4 were examined alongside the parent drug CBI-TMI (2), and the two control standards 9 and 10 (incapable of spirocyclization) within w794 duplex DNA (Boger, D. L.; et al. Tetrahedron 1991, 47, 2661) for which results for an extensive series of duocarmycin analogues have been reported. The sites of DNA alkylation and its efficiency were directly assessed by thermally-induced singly 5′ end-labeled duplex DNA strand cleavage following incubation with the agents ([…], natural enantiomers examined).
The DNA alkylation reactions were performed by treatment of 4.5 μL of singly ^32P 5′-end-labeled double-stranded w794 DNA (Boger, D. L.; et al. Tetrahedron 1991, 47, 2661) in TE buffer (10 mM Tris, 1 mM EDTA, pH 7.6) with 0.5 μL of agent in EtOH (at the specified concentration). […] Unbound agent was removed by EtOH precipitation of DNA (0.5 μL of 3.0 M sodium acetate and 12.5 μL of cold absolute EtOH) and the solutions were stored at −78° C. for 1 hour or longer. The DNA was pelleted by centrifugation at 4° C. (13000 rpm, 25 minutes), dried in a Savant Speed Vac concentrator, and resuspended in 5 μL of TE buffer (pH 7.6). Thermal depurination (3×10 minutes at 100° C.) was performed and then 2.5 μL of formamide dye solution was added to the cooled samples. Thermally denatured samples were assayed by gel electrophoresis [8% denaturing gel with 8 M urea in TBE buffer (89 mM Tris-borate, 2 mM EDTA)] followed by autoradiography of the dried gel using Kodak BIOMAX XAR film and a Picker Spectra™ intensifying screen.

A short description of series [5]: Stability in human plasma. The format is in vitro ADME. The settings on record: 50 μg/100 μL, 10% DMSO, release of free drug 2.
Series [6] has as its system H460 (mitomycin-sensitive, expresses high levels of DT-Diaphorase) non small cell lung cancer (NSCLC) cell line. Put plainly: Cytotoxic activity, H460 cell line. It counts as cell-based. The following applies: for IC50: Homo sapiens, NCI-H460, read-out: IC50 (nM) H460. The method, then:
as §1

[7] abbreviates: Mus musculus, L1210, read-out: IC50 (nM) L1210, natural enantiomer series, CBI-TMI derivatives.

Where two headings read alike, the source gives them in different places. Some results are limits rather than exact numbers.

Consider `COc1cc2cc(C(=O)N3C[C@@H](CCl)c4c3cc(ONC(=O)OC(C)(C)C)c3ccccc43)[nH]c2c(OC)c1OC` [Compound 4], for which the figures for the IC50 in series [1], in series [4] (setting [7]) and in series [6] were 6 nM, 0.5 nM and 1 nM, respectively. In addition, in series [2], the “stability in pH 7.0 phosphate buffer” value is “no significant cleavage of the prodrug was observed”. For the same compound, the “stability to treatment with BnSH in MeOH with NaHCO3” value in series [3] (BnSH in MeOH, NaHCO3, 2 hours, 23° C.) is “cleaved to release 2”. In series [3] (BnSH in THF (2-72 hours, 23° C.) or MeOH (2-72 hours, 23° C.)), the “stability to treatment with BnSH” value is on record as “stable”. The “stability to treatment with BnSH in THF with insoluble NaHCO3” value in series [3] (BnSH in THF, insoluble NaHCO3, 2 hours, 23° C.) is “stable”. Also, in series [3] (MeOH), the “stability in MeOH” value is “stable”. The “stability to NaHCO3 or Na2CO3 in MeOH” value in series [3] (NaHCO3 or Na2CO3 in MeOH, 2 hours, 23° C.) is on record as 2 was released slowly. In series [3], the “stability to acidic conditions” value was “surprisingly robust to acidic conditions”. In addition, the “stability on long term storage” value in series [3] is listed as “withstanding even long term storage effectively”. For the same compound, the “fold less potent than 2” value in series [4] (against L1210, natural enantiomer) was 10 fold. The “DNA alkylation efficiency, reduction relative to CBI-TMI (2)” value in the series on w794 duplex DNA (w794 DNA, 4° C., 18 hours, natural enantiomers) is recorded as 1,000-10,000 fold. In the series with w794 duplex DNA (w794 DNA, compared with CBI-TMI (2)), the “DNA alkylation sequence selectivity” value is “identical sequence selectivity”. For the same compound, in series [5], the half-life was 180 min. In series [6] (against H460/H596), the “potency compared with 2” value is “essentially equipotent”.

For the compound `COc1cc2cc(C(=O)N3C[C@@H](CCl)c4c3cc(ON3C(=O)c5ccccc5C3=O)c3ccccc43)[nH]c2c(OC)c1OC` [Compound 7], the IC50 in series [1] is 5 nM; in series [4] (setting [7]), 0.06 nM; in series [6], 0.5 nM. In addition, the “stability to acidic conditions” value in series [3] is on record as “surprisingly robust to acidic conditions”. Further, the “stability on long term storage” value in series [3] is reported as “noticeably deteriorating over time”.

As for `COc1cc2cc(C(=O)N3C[C@@H](CCl)c4c3ccc3ccccc43)[nH]c2c(OC)c1OC` [Compound 9], the IC50 in series [1], in series [4] (setting [7]) and in series [6] was > 100 nM in each case. The “DNA alkylation under forcing conditions” value in the series with w794 duplex DNA (37° C., 18 hours, data not shown) is “no appreciable DNA alkylation”. In addition, the “observable DNA alkylation” value in the series with w794 duplex DNA (w794 DNA, 4° C., 18 hours) was “failed to exhibit significant observable DNA alkylation”.

In the case of `COc1cc2cc(C(=O)N3C[C@@H](CCl)c4c3cc(OC)c3ccccc43)[nH]c2c(OC)c1OC` [Compound 10], the IC50 in series [1] is > 100 nM; in series [4] (setting [7]), > 100 nM; in series [4] (read-out: IC50 (nM) L1210, natural enantiomer series, CBI-TMI derivatives), 50 nM; in series [6], > 100 nM. In the series with w794 duplex DNA (w794 DNA, 4° C., 18 hours), the “observable DNA alkylation” value is on record as “failed to exhibit significant observable DNA alkylation”. The “DNA alkylation relative to that of 2” value in the series on w794 duplex DNA (w794 DNA, natural enantiomers) is listed as < 0.01%.
